Source: US5563037A, “Homogeneous method for assay of double-stranded nucleic acids using fluorescent dyes and kit useful therein” (Johnson & Johnson Clinical Diagnostics, Inc., priority 1995, dated 1996)
Values joined by “and” are separate entries in the source; they are usually repeats but may differ in a detail not shown here. Equal entries are not always repeated.

Experiments:
HIV-I DNA [1] = test: Example 3: fluorescence after amplification with dye; usefulness / PCR inhibition; format: biochemical; settings: for Fluorescent Signal: amplified samples mixed with YOYO-1 (0.1 μmolar); for usefulness of dye / inhibition of PCR: dye in amplification
Experimental: The primers used in Example 3 had the following sequences which are complementary to the gag region of HIV-I DNA: Amplification experiments like those of Example 2 were also carried out to evaluate the usefulness of several other conventional fluorescent dye stains. In these assays, primers identified above as SEQ ID NO:3 and SEQ ID NO:4 were used, as well as the probe identified as SEQ ID NO:6. […] Fluorescence was determined as described in Example 2 except that all amplified samples were mixed with a solution of YOYO-1 (0.1 μmolar) to provide a common minimum threshold of signal.

[2] = target: double-stranded nucleic acids; test: Binding constant (Kb) of fluorescent dye with double-stranded nucleic acids; settings: Kp from Molecular Probes catalog divided by 55
From the text: The fluorescent dyes useful herein are generally defined as unsymmetrical cyanine dyes having a binding constant (Kb) within the range of from about 1×104 to about 5×105 (molar^-1). As used to define Kb, "about" refers to a variance of 10%. The dyes are also water-soluble or water-dispersible so they can bind to the nucleic acids in the aqueous reaction mixture. Depending upon the anions used, the dyes may be dissolved in a water-miscible solvent.
Particularly useful fluorescent dyes are commercially available from Molecular Probes, Inc. having the trade names and Kp values listed in Table I below. However, this invention is not to be construed as limited to the particular Molecular Probes, Inc. dyes listed therein since these are but preferred dyes. The cations of these preferred dyes are also identified below by chemical structure. The compounds can include any suitable divalent anion, or two monovalent anions. Iodide is preferred. [drawing 3]
*The Kb values in the table were calculated by dividing the partitio
coefficient (Kp) reported in the Molecular Probes, Inc. catalog, page 224
by 55, the molarity of water.

HIV-I DNA [3] = test: Example 2: leuco dye color scores of amplified target in pouches; format: biochemical; settings: dye added prior to amplification
Experimental: (§1) The method of this invention was compared to an amplification and detection method outside the scope of this invention, which was carried out using YOYO-1 (1 μmolar final concentration), a tetravalent fluorescent dye, in the buffered solution described above. This dye has the following structure: [drawing 4]
Amplification was carried out using self-contained chemical pouches such as those described in U.S. Pat. No. 5,229,297 (Schnipelsky et al). Those pouches contained the capture probe SEQ ID NO:5 attached to particles which were immobilized in a detection channel where reactions can take place.
The pouches were loaded with reagents, as follows:
(§2) The PCR reaction mixture of Example 1 (except the DNA polymerase) was made to a volume of 5472 μl. The resulting mixture was aliquoted into tubes A, B and C (1824 μl each) representing Samples A, B and C, respectively.
(§3) The sample in Tube A was diluted with buffer (220 μl) and subjected to amplification without any fluorescence dye present. The dye was added at the end of amplification for quantitative detection of the resulting products.
(§4) In addition to the PCR reagents, the sample in Tube B contained YOYO-1 fluorescent dye (0.1 μmolar) which had been added prior to amplification (220 μl of a 10 μmolar solution).
(§5) The sample in Tube C also contained YO-PRO-1 fluorescent dye (0.1 μmolar) which had been added prior to amplification (220 μl of a 10 μmolar solution).
(§6) The DNA polymerase (88 μl) and target HIV-I DNA target nucleic acid (220 μl) were then added to each tube, and the contents of the each of the three tubes were used to fill the PCR reagent compartment of eight pouches.
Amplification was carried out using the same procedures as in Example 1. The PCR protocol was similarly carried out for 40 cycles using a thermal cycler as follows:
1) Preheat to denature at 95° C. for 60 seconds,
priming and extension for 40 seconds at 63.5° C., and denaturation for 10 seconds at 95° C., and
3) final denaturation for 60 seconds at 95° C.
(§7) The results of amplification were detected in three ways: (1) color dye scores visually evaluated as 0 (no signal) to 10 (highest signal density), (2) ethidium bromide stained electrophoretic gels, and (3) fluorescence measured on a commercially available Perkin Elmer fluorimeter.
The noted color scores were obtained by using immobilized capture probes in the pouches with which the amplified target hybridized during incubation for 5 minutes at 42° C. The immobilized target was contacted with the conjugate solution (identified above) for 1 minute at 30° C., followed by the wash solution for 1 minute at 55° C. The leuco dye solution was then added at 30° C. and the resulting color signal was observed after two minutes incubation at 30° C. […]

HIV-I DNA [4] = test: Example 2: ethidium bromide stained electrophoretic gels of amplification products; format: biochemical
Experimental: The method of this invention was compared to an amplification and detection method outside the scope of this invention, which was carried out using YOYO-1 (1 μmolar final concentration), a tetravalent fluorescent dye, in the buffered solution described above. This dye has the following structure: [drawing 4] The PCR reaction mixture of Example 1 (except the DNA polymerase) was made to a volume of 5472 μl. The resulting mixture was aliquoted into tubes A, B and C (1824 μl each) representing Samples A, B and C, respectively. The sample in Tube A was diluted with buffer (220 μl) and subjected to amplification without any fluorescence dye present. The dye was added at the end of amplification for quantitative detection of the resulting products. In addition to the PCR reagents, the sample in Tube B contained YOYO-1 fluorescent dye (0.1 μmolar) which had been added prior to amplification (220 μl of a 10 μmolar solution). The sample in Tube C also contained YO-[…] fluorescent dye (0.1 μmolar) which had been added prior to amplification (220 μl of a 10 μmolar solution). The DNA polymerase (88 μl) and target HIV-I DNA target nucleic acid (220 μl) were then added to each tube, and the contents of the each of the three tubes were used to fill the PCR reagent compartment of eight pouches. Amplification was carried out using the same procedures as in Example 1. […] follows: The results of amplification were detected in three ways: (1) color dye scores visually evaluated as 0 (no signal) to 10 (highest signal density), (2) ethidium bromide stained electrophoretic gels, and (3) fluorescence measured on a commercially available Perkin Elmer fluorimeter. Electrophoresis was carried out using commercially available NuSieve 1.5%/Seakem Agarose 1% gels (modified to 2.5% agarose) and ethidium bromide stain. The samples were applied to the gels in conventional TBE buffer (4 μl/100 μl). Three replicate assays of each sample (A, B and C) were carried out using each detection means. The average result for each detection means was as follows: […]

HIV-I DNA [5] = test: Example 2: fluorescence of amplification products; format: biochemical
Experimental: as §1, §2, §3, §4, §5, §6
Amplification was carried out using the same procedures as in Example 1. […]
as §7
Three replicate assays of each sample (A, B and C) were carried out using each detection means. The average result for each detection means was as follows:
Fluorescent signal was generated using a Perkin-Elmer LS-5B fluorimeter, at the following wavelengths for both dyes:
Each amplification product mixture was diluted 100× into a solution of each dye (1 μmolar final concentration). Background signals were obtained from a mixture of amplification reagent mixture and each dye.

[6] = 60 cycles, in the presence of YOYO-1

In the case of TOTO-3 [reference compound], the “Fluorescent signal and its repeatability (in words)” value (HIV-I DNA [1]; Table II footnote) is reported as “high fluorescent signal in one experiment” and the “Fluorescent Signal” value (HIV-I DNA [1]) is reported as 8.45.

For CN1/C(=C/c2cc[n+](CCC[N+](C)(C)CCC[N+](C)(C)CCC[n+]3ccc(/C=C4\Sc5ccccc5N4C)c4ccccc43)c3ccccc23)Sc2ccccc21.[I-].[I-].[I-].[I-] [TOTO-1, reference compound], the “Fluorescent Signal” value (HIV-I DNA [1]) was 2.70.

With C[n+]1c(C=C2C=CN(CCC[N+](C)(C)C)C=C2)sc2ccccc21 [Compound C] the “Fluorescent Signal” value (HIV-I DNA [1]) was 19.6, the “usefulness of dye / inhibition of PCR” value (HIV-I DNA [1]) was “useful” and the Kd [2] was 17.2 µM.

In the case of C[n+]1c(C=C2C=CN(CCC[N+](C)(C)CCC[N+](C)(C)CCCN3C=CC(=Cc4oc5ccccc5[n+]4C)c4ccccc43)c3ccccc32)oc2ccccc21 [YOYO-1], the “effect of dye on amplification (color scores)” value (HIV-I DNA [3]) is reported as “inhibited amplification”, the “Average Color Score” value (HIV-I DNA [3]; leuco dye, 0 (no signal) to 10 (highest signal density), 40 cycles) is reported as 0 and the “Fluorescent Signal” value (HIV-I DNA [1]) is reported as 2.18. For the same molecule, the “usefulness of dye / inhibition of PCR” value (HIV-I DNA [1]) was “not useful because they generally inhibited PCR”, the “difference with modified protocol, by gel electrophoresis” value (HIV-I DNA [4]; [6]) was “not by gel electrophoresis” and the “effect of dye on amplification (gel)” value (HIV-I DNA [4]; dye added prior to amplification) was “stopped amplification”. The “Positive/negative Gel Bands” value (HIV-I DNA [4]; dye added prior to amplification, 40 cycles) was 5 Negatives out of 5 bands, the “difference with modified protocol, by fluorescence” value (HIV-I DNA [5]; [6]) was “small and was detectable by fluorescence” and the “Fluorescence, dye added after amplification (Sample A)” value (HIV-I DNA [5]; Sample A, dye added after amplification, replicates, 491/509 nm) was 7.1 Fluorescent Units and 6.6 Fluorescent Units and 6.0 Fluorescent Units (2×). The Background fluorescence (HIV-I DNA [5]; amplification reagent mixture and dye, excitation 491 nm, emission 509 nm) was 0.09 Fluorescent Units, the “effect of dye on amplification / overall signal” value (HIV-I DNA [5]; comparison of the two dyes (fluorescence)) was “considerably inhibits the amplification process” and the “Fluorescence, dye present during amplification (Samples B, C)” value (HIV-I DNA [5]; dye added prior to amplification, replicates, 491/509 nm) was 1.5 Fluorescent Units (3×) and 1.4 Fluorescent Units (2×). For the same molecule, the nucleic acid staining (HIV-I DNA [5]; in words) was “high nucleic acid staining”.

In the case of C[n+]1c(C=C2C=CN(CCC[N+](C)(C)C)c3ccccc32)sc2ccccc21 [Compound G], the “Fluorescent Signal” value (HIV-I DNA [1]) is reported as 8.32, the “usefulness of dye / inhibition of PCR” value (HIV-I DNA [1]) is reported as “useful” and the Kd [2] is reported as 2.78 µM.

In the case of C[n+]1c(C=CC=C2C=CN(CCC[N+](C)(C)C)C=C2)sc2ccccc21 [D], the Kd [2] is reported as 11.5 µM.

Molecule C[n+]1c(C=C2C=CN(CCC[N+](C)(C)C)C=C2)oc2ccccc21 [A] has a Kd [2] of 27.8 µM.

C[n+]1c(C=CC=C2C=CN(CCC[N+](C)(C)C)c3ccccc32)oc2ccccc21 [F] was tested, and the Kd [2] was 16.7 µM.

For C[n+]1c(C=CC=C2C=CN(CCC[N+](C)(C)C)c3ccccc32)sc2ccccc21 [Compound H], the “Fluorescent Signal” value (HIV-I DNA [1]) was 15.5, the “usefulness of dye / inhibition of PCR” value (HIV-I DNA [1]) was “useful” and the Kd [2] was 9.09 µM.
